Where “and” joins values, the source holds several entries; their conditions need not be identical. Equal entries are not always repeated. Entries after “also recorded” stand apart in the source; their conditions may differ.
Tests used:
[1] = Example 3: muscle protein turnover (14C-L-tyrosine infusion); format: in vivo, broiler cockerels
Procedure: At week no. 7 (49 days-of-age), one-half of the birds (8 birds/treatment) were killed for measurement of the abdominal fat pad and liver weights. The muscles were removed, weighed, frozen in liquid N2 and stored at -20° C. until analyzed. At 51 days-of-age, groups of 4 birds per treatment were given a subcutaneous infusion of 4 μCi/Kg of 14C-L-tyrosine emulsified in sesame seed oil and immediately placed in metabolism cages. The expired CO2 was trapped in 15 ml of scrubbing solution (1:2 ethanolamine/methyl cellusolve) and the tubes were changed every 15 minutes for 90 minutes. At 90 minutes, the birds were removed from the metabolism cages and blood was obtained via cardiac puncture. Birds were then sacrificed by cervical dislocation and the muscles were removed, weighed, frozen in liquid N2 and stored at -20° C. until analyzed. Radioactivity in the samples containing trapped CO2 was counted for 10 minutes using a liquid scintillation spectrophotometer. At 54 days-of-age, groups of 4 birds per treatment were killed, the muscles were dissected, weighed, and frozen until analyzed.
The right breast muscle, i.e. BM (Pectoralis major) and right leg muscles, i.e. LM (gastrocnemius and peroneus longus) were dissected out from the birds, weighed and immediately frozen in liquid nitrogen and stored at -20° C. until analyzed for tyrosine content as specific radioactivity of tyrosine. All muscle tissues were analyzed for protein content; only tissues from isotope experiments were analyzed for tyrosine content as specific radioactivity of tyrosine.
FAR of breast muscle and leg muscles were estimated from regression of total muscle protein on age. Total muscle protein was determined by multiplying the muscle weight by protein content. Protein content was determined by the Biuret method. The slope obtained by linear regression was the absolute rate of protein accretion (g/d). The FAR (%/d) was calculated by dividing the absolute accretion rate by the average muscle protein at 51 days-of-age. The FSR (ks) was calculated according to the equation described by Garlick et al., Biochem. J. 136:935 (1973). Protein-bound tyrosine in muscle tissue was separated from free tyrosine according to the procedures of Laurent et al. Biochem. J. 176:419 (1978) with some modification. Approximately 1 g of muscle tissue was homogenized with 5 ml cold distilled water and washed with 15 ml of cold 5% trichloroacetic acid (TCA). The homogenate was then centrifuged for 15 min at 4000×g. The supernatant containing the free tyrosine was poured off and the TCA was extracted with 15 ml of diethyl ether. The supernatant was concentrated to dryness. The dried sample was dissolved in 5 ml of distilled water and stored at 4° C. until analyzed for tyrosine content and the specific radioactivity of tyrosine.
The pellet was extracted with 15 ml of hot 5% TCA, 15 ml of 3:1 ethanol/diethyl ether (v/v) and 20 ml of diethyl ether. The washed pellet was then placed in a 25×150 mm test tube with screw cap and hydrolyzed in 15 ml of 6N hydrochloric acid (HCl) for 16 hours at 125° C. The hydrolysate was concentrated to dryness. The dried sample was dissolved in 5 ml of distilled water and stored at 4° C. until analyzed for tyrosine content and specific radioactivity of tyrosine.
Tyrosine content in free tyrosine (supernatant) and the protein-bound fraction (hydrolysate) was analyzed according to the method of Udenfriend et al, J. Biol. Sci. 196:227 (1952).
The specific radioactivity of tyrosine in the protein-bound fraction (hydrolysate) and in the free tyrosine (supernatant) was analyzed using the method described by Schaefer et al, Can. J. Anim. Sci. 62:1223 (1982). One ml of the samples were added into 10 ml of aquasol and counted for 10 minutes in a liquid scintillation spectrophotometer.

[2] = Example 1: plasma hormone concentrations (radioimmunoassays)
Description: The purpose of this study was to determine the effect manipulating blood levels of thyroid hormones and/or growth hormone on growth performance and body composition of broiler chickens. […] Purified natural chicken growth hormone (ncGH) was obtained from the Research and Education Center, Harbor-UCLA Medical Center, Torrance, Calif. […] The premix (200 g) was then used to prepare 50 kg batches of each experimental diet according to the formula for broiler-finisher ration described in Table 1. The diet containing 0.5% PTU was prepared by mixing 250 g of PTU into 49.75 kg of the basal ration (Table 1).
Broiler cockerels (Ross X Arbor Acre strain) were raised to 3 weeks-of-age in a battery-brooder and then transferred to wire grow-out cages (4 birds/pen) held in two controlled-environment rooms (10 pens/room). Beginning at 3 weeks of age, eight birds (2 pens of 4 birds) were randomly assigned to each of 10 treatments. The chickens were provided the experimental diets and water ad libitum. […] For injection, the ncGH was reconstituted in sterile 0.025M sodium bicarbonate buffer (pH 9.8). The 10 treatments were administered for 21 days (i.e., from 3 to 6 weeks of age).
Measurement of body weight and feed consumption at weekly intervals allowed calculation of the average daily gain (ADG, g/bird/day), average daily feed consumption (ADFC, g/bird/day) and the feed-to-gain ratio (FIG, kg feed/kg gain) over the 21 day experimental period. Blood samples were taken each week (4, 5, and 6 weeks) just before (pre-injection) and 4 hours post-injection of ncGH. […] At the conclusion of the study, birds were killed and the carcasses frozen for proximate analysis. The frozen carcasses were ground in a meat grinder and aliquots of each ground carcass taken for determination of moisture, protein, fat and ash by established analytical procedures (Official Method of Analysis, Edition 13, W. Horwitz ed., Association of Official Analytical Chemist, Washington, D.C., 1980). Body composition data are presented as a percent of live weight at 6 weeks-of-age. Least squares regression analysis was used to test for significant differences (P<0.05) due treatment.

**Q.** What does the source list for `N[C@@H](Cc1cc(I)c(Oc2ccc(O)c(I)c2)c(I)c1)C(=O)O` [T3, 3,3',5-triiodo-L-thyronine]?
**A.** overall protein turnover rate of breast muscle ([1]; 0.25 ppm): did not differ from that of control birds; protein accretion in breast and leg muscle, increase ([1]; 0.25 ppm): 45-88%; FAR, Leg muscles ([1]; 0.25 ppm of feed): 9.3 %/d; FAR, Pectoralis major (breast muscle) ([1]; 0.25 ppm of feed): 4.9 %/d; FRD (fractional degradation rate), Leg muscles ([1]; 0.25 ppm of feed): 13.6 %/d; FRD (fractional degradation rate), Pectoralis major ([1]; 0.25 ppm of feed): 12.3 %/d; FSR, Leg muscles ([1]; 0.25 ppm of feed): 22.0 ± 2.1 %/d; FSR, Pectoralis major ([1]; 0.25 ppm of feed): 17.2 ± 1.3 %/d; FAR of leg muscle, increase ([1]; 0.25 ppm, vs control group): 45%; FAR of pectoralis major (breast muscle), increase ([1]; 0.25 ppm, vs control group): 88%; effect on protein synthesis rate in breast muscle ([1]; 0.25 to 1 ppm): only a slight effect upon protein synthesis rate in breast muscle; FAR, Leg muscles ([1]; 1.0 ppm of feed): -2.0 %/d; FAR, Pectoralis major (breast muscle) ([1]; 1.0 ppm of feed): -4.5 %/d; FRD (fractional degradation rate), Leg muscles ([1]; 1.0 ppm of feed): 24.1 %/d; FRD (fractional degradation rate), Pectoralis major ([1]; 1.0 ppm of feed): 22.7 %/d; FSR, Leg muscles ([1]; 1.0 ppm of feed): 22.1 ± 1.9 %/d; FSR, Pectoralis major ([1]; 1.0 ppm of feed): 18.2 ± 1.7 %/d; fractional degradation rate of breast muscle, increase ([1]; 4 ppm): 116%; FSR of protein in breast muscle, increase ([1]; 4.0 ppm (p<0.05)): 55.7% and 56%; FAR, Leg muscles ([1]; 4.0 ppm of feed): 5.0 %/d; FAR, Pectoralis major (breast muscle) ([1]; 4.0 ppm of feed): -3.8 %/d; FRD (fractional degradation rate), Leg muscles ([1]; 4.0 ppm of feed): 18.4 %/d; FRD (fractional degradation rate), Pectoralis major ([1]; 4.0 ppm of feed): 28.1 %/d; FSR, Leg muscles ([1]; 4.0 ppm of feed): 23.4 ± 0.8 %/d; FSR, Pectoralis major ([1]; 4.0 ppm of feed): 24.3 ± 1.4 %/d; accretion of certain muscle protein (particularly breast muscle) ([1]; plasma thyroid hormone bioactivity 360-1200% of normal): decreased; I/G Molar Ratio ([2]; Group 1, dietary, N = 24): 0.51; plasma Glucagon (G) ([2]; Group 1, dietary, N = 24): 491 pg/mL; plasma Insulin (I) ([2]; Group 1, dietary, N = 24): 409 pg/mL; effect on insulin and glucagon secretion ([2]; dietary T3 / elevated plasma T3): inhibit insulin secretion whereas glucagon secretion is enhanced; also recorded: depresses insulin secretion while glucagon secretion is increased; plasma I/G molar ratio, fold lower ([2]; vs CF birds (P<0.05)): 4.3 times; plasma GH level, reduction ([2]; vs CF treatment): 32%; plasma T4 level, reduction ([2]; vs average of CF and TRH treatments (P<0.05)): 58%
